In the NIST ThermoML archive (doi:10.1021/acs.jced.8b00521):

Assay: xn = mol fraction of the nth substance listed
Details: Liquid; for viscosity: Capillary tube (Ostwald / Ubbelohde) method; for mass density: Vibrating tube method

CCCCCCCC(=O)OCC [ethyl octanoate] + CCCCCCCCCCCC(=O)OC
Details | mass density, 313.15 K [kg/m3] | mass density, 323.15 K [kg/m3] | viscosity, 313.15 K [mPa·s] | viscosity, 323.15 K [mPa·s]
100 kPa, x2 = 0.1 | – | 841 | – | 1.03
100 kPa, x2 = 0.1999 | – | 842 | – | 1.09
100 kPa, x2 = 0.3001 | – | 842 | – | 1.13
100 kPa, x2 = 0.4 | – | 843 | – | 1.19
100 kPa, x2 = 0.4999 | – | 843 | – | 1.26
100 kPa, x2 = 0.6001 | – | 843 | – | 1.33
100 kPa, x2 = 0.6999 | – | 844 | – | 1.42
100 kPa, x2 = 0.8001 | – | 844 | – | 1.51
100 kPa, x2 = 0.9 | – | 844 | – | 1.61
2930 kPa, x2 = 0.1 | – | 843 | – | 1.04
2930 kPa, x2 = 0.1999 | – | 843 | – | 1.11
2940 kPa, x2 = 0.3001 | – | 844 | – | 1.18
2960 kPa, x2 = 0.6999 | – | 845 | – | 1.45
2980 kPa, x2 = 0.6001 | – | 845 | – | 1.38
3010 kPa, x2 = 0.4999 | – | 844 | – | 1.31
3020 kPa, x2 = 0.4 | – | 844 | – | 1.24
3020 kPa, x2 = 0.9 | – | 846 | – | 1.65
3040 kPa, x2 = 0.8001 | – | 846 | – | 1.57
6010 kPa, x2 = 0.8001 | – | 848 | – | 1.61
6020 kPa, x2 = 0.3001 | – | 845 | – | 1.22
6030 kPa, x2 = 0.4999 | – | 846 | – | 1.35
6030 kPa, x2 = 0.6999 | – | 847 | – | 1.5
6040 kPa, x2 = 0.6001 | – | 847 | – | 1.42
6060 kPa, x2 = 0.1 | – | 844 | – | 1.08
6060 kPa, x2 = 0.1999 | – | 845 | – | 1.15
6080 kPa, x2 = 0.4 | – | 846 | – | 1.29
6080 kPa, x2 = 0.9 | – | 849 | – | 1.7
8900 kPa, x2 = 0.1 | 855 | – | 1.33 | –
8900 kPa, x2 = 0.1999 | 855 | – | 1.42 | –
8930 kPa, x2 = 0.6999 | – | 849 | – | 1.56
8960 kPa, x2 = 0.6999 | 858 | – | 1.93 | –
8980 kPa, x2 = 0.8001 | – | 850 | – | 1.67
8980 kPa, x2 = 0.9 | – | 850 | – | 1.75
9000 kPa, x2 = 0.6001 | 857 | – | 1.81 | –
9010 kPa, x2 = 0.4 | 856 | – | 1.59 | –
9010 kPa, x2 = 0.9 | 859 | – | 2.15 | –
9030 kPa, x2 = 0.3001 | 855 | – | 1.52 | –
9030 kPa, x2 = 0.6001 | – | 849 | – | 1.46
9030 kPa, x2 = 0.8001 | 858 | – | 2.06 | –
9040 kPa, x2 = 0.1 | – | 846 | – | 1.11
9050 kPa, x2 = 0.4999 | 857 | – | 1.7 | –
9070 kPa, x2 = 0.3001 | – | 847 | – | 1.26
9070 kPa, x2 = 0.4999 | – | 848 | – | 1.39
9090 kPa, x2 = 0.4 | – | 847 | – | 1.32
9140 kPa, x2 = 0.1999 | – | 847 | – | 1.19
11900 kPa, x2 = 0.4 | – | 849 | – | 1.36
11910 kPa, x2 = 0.6001 | 859 | – | 1.87 | –
11950 kPa, x2 = 0.4 | 858 | – | 1.63 | –
11960 kPa, x2 = 0.6001 | – | 850 | – | 1.5
11970 kPa, x2 = 0.4999 | – | 850 | – | 1.43
11980 kPa, x2 = 0.3001 | 857 | – | 1.57 | –
11990 kPa, x2 = 0.3001 | – | 849 | – | 1.29
11990 kPa, x2 = 0.8001 | – | 852 | – | 1.72
12000 kPa, x2 = 0.9 | – | 852 | – | 1.79
12010 kPa, x2 = 0.1 | 856 | – | 1.37 | –
12010 kPa, x2 = 0.1999 | 856 | – | 1.47 | –
12010 kPa, x2 = 0.8001 | 860 | – | 2.11 | –
12020 kPa, x2 = 0.1 | – | 847 | – | 1.14
12020 kPa, x2 = 0.1999 | – | 848 | – | 1.22
12020 kPa, x2 = 0.4999 | 858 | – | 1.74 | –
12060 kPa, x2 = 0.6999 | – | 851 | – | 1.6
12070 kPa, x2 = 0.9 | 860 | – | 2.22 | –
12090 kPa, x2 = 0.6999 | 860 | – | 1.99 | –
14960 kPa, x2 = 0.6001 | – | 852 | – | 1.55
14960 kPa, x2 = 0.9 | – | 854 | – | 1.85
14970 kPa, x2 = 0.8001 | 862 | 853 | 2.16 | 1.76
14980 kPa, x2 = 0.6999 | 861 | 853 | 2.03 | 1.65
14990 kPa, x2 = 0.1 | – | 849 | – | 1.18
14990 kPa, x2 = 0.1999 | – | 850 | – | 1.26
15010 kPa, x2 = 0.4 | – | 851 | – | 1.4
15010 kPa, x2 = 0.6001 | 861 | – | 1.92 | –
15020 kPa, x2 = 0.3001 | 859 | 850 | 1.62 | 1.33
15040 kPa, x2 = 0.4999 | 860 | 851 | 1.79 | 1.48
15050 kPa, x2 = 0.1 | 858 | – | 1.41 | –
15050 kPa, x2 = 0.1999 | 858 | – | 1.51 | –
15050 kPa, x2 = 0.9 | 862 | – | 2.28 | –
15090 kPa, x2 = 0.4 | 859 | – | 1.69 | –
